The values that follow come from ChEMBL document CHEMBL4000176, “Synthesis and SAR study of novel sarsasapogenin derivatives as potent neuroprotective agents and NO production inhibitors” (2017).

The source made the active and inactive calls. No cut-off for these calls is given here.

The test system of assay [1] is Mus musculus. Put plainly: Cognition enhancing effect in scopolamine-induced cognitive impairment mouse model assessed as increase in time spent in target quadrant at 3 mg/kg, ig administered once in a day for 14 consecutive days followed by scopolamine challenge 1 hr post last dose by Morris water maze test. Type of assay: functional, organism-based.
Assay [2] has as its system PC-12. As to the kind of experiment: Neuroprotective activity against H2O2-induced cytotoxicity in rat PC12 cells assessed as cell viability at 10 umol/L preincubated for 2 hrs followed by H2O2 addition and measured after 24 hrs by MTT assay (reference value: 18.9 +/- 2.2%). The format is functional. Particulars: for viability at 10 µM: read-out: Activity.
In the next assay the test system is RAW264.7. As to the kind of experiment: Inhibition of LPS-induced NO production in mouse RAW264.7 cells at 10 umol/L after 24 hrs preincubated for 30 mins followed by LPS addition measured after 24 hrs by Griess assay relative to control. The format is functional.
The subject of assay [3] is Mus musculus. Put plainly: Cognition enhancing effect in scopolamine-induced cognitive impairment mouse model assessed as increase in time spent in target quadrant at 6 mg/kg, ig administered once in a day for 14 consecutive days followed by scopolamine challenge 1 hr post last dose by Morris water maze test. The format is functional, organism-based.
Assay [4] relates to PC-12. Put plainly: Neuroprotective activity against H2O2-induced cytotoxicity in rat PC12 cells assessed as cell viability at 1 mM preincubated for 2 hrs followed by H2O2 addition and measured after 24 hrs by MTT assay (reference value: 18.9 +/- 2.2%). Particulars: read-out: Activity. The format is functional.

On to `COc1cc2c(cc1OC)C(=O)C(CC1CCN(Cc3ccccc3)CC1)C2` (centres undefined), for which, in the assay with Mus musculus [1], the result was Active.
As to `C[C@H]1CC[C@@]2(OC1)O[C@H]1C[C@H]3[C@@H]4CC[C@@H]5C[C@@H](OC(=O)N6CCCC6)CC[C@]5(C)[C@H]4CC[C@]3(C)[C@H]1[C@@H]2C`, the viability at 10 µM with PC-12 [2] was found to be 16.1%.
Still for that read-out and setting: the same measure for `C[C@H]1CC[C@@]2(OC1)O[C@H]1C[C@H]3[C@@H]4CC[C@@H]5C[C@@H](OC(=O)NN)CC[C@]5(C)[C@H]4CC[C@]3(C)[C@H]1[C@@H]2C`: 11.2%.
With `C[C@H]1CC[C@@]2(OC1)O[C@H]1C[C@H]3[C@@H]4CC[C@@H]5C[C@@H](OC(=O)NC6CCCCC6)CC[C@]5(C)[C@H]4CC[C@]3(C)[C@H]1[C@@H]2C`, the inhibition at 10 µM with RAW264.7 was 4.6%. Further, the viability at 10 µM in the assay on PC-12 [2] was 52.2%.
For `C[C@H]1CC[C@@]2(OC1)O[C@H]1C[C@H]3[C@@H]4CC[C@@H]5C[C@@H](OC(=O)N6CCCCC6)CC[C@]5(C)[C@H]4CC[C@]3(C)[C@H]1[C@@H]2C` the same measures were 28.7% and 20.1%.
In the case of `C[C@H]1CC[C@@]2(OC1)O[C@H]1C[C@H]3[C@@H]4CC[C@@H]5C[C@@H](OC(=O)NCCN)CC[C@]5(C)[C@H]4CC[C@]3(C)[C@H]1[C@@H]2C`, the outcome in the assay on PC-12 [2] was inactive.
In the case of `C[C@H]1CC[C@@]2(OC1)O[C@H]1C[C@H]3[C@@H]4CC[C@@H]5C[C@@H](O)CC[C@]5(C)[C@H]4CC[C@]3(C)[C@H]1[C@@H]2C` [SARSASAPOGENIN], in the assay with PC-12 [2], the viability at 10 µM was found to be 3.3%.
For `C[C@H]1CC[C@@]2(OC1)O[C@H]1C[C@H]3[C@@H]4CC[C@@H]5C[C@@H](OC(=O)NCc6ccccc6)CC[C@]5(C)[C@H]4CC[C@]3(C)[C@H]1[C@@H]2C`, in the assay with RAW264.7, testing at 10 µM gave an inhibition of 8.9%. Further, in the assay on PC-12 [2], the viability at 10 µM was 49.4%.
For `C[C@H]1CC[C@@]2(OC1)O[C@H]1C[C@H]3[C@@H]4CC[C@@H]5C[C@@H](OC(=O)N6CCNCC6)CC[C@]5(C)[C@H]4CC[C@]3(C)[C@H]1[C@@H]2C`, the viability at 10 µM with PC-12 [2] was 3.4%.
On to `C[C@H]1CC[C@@]2(OC1)O[C@H]1C[C@H]3[C@@H]4CC[C@@H]5C[C@@H](OC(=O)NCc6ccc(O)cc6)CC[C@]5(C)[C@H]4CC[C@]3(C)[C@H]1[C@@H]2C`, for which the viability at 10 µM in the assay with PC-12 [2] was determined as 18.9%.
In turn, `C[C@H]1CC[C@@]2(OC1)O[C@H]1C[C@H]3[C@@H]4CC[C@@H]5C[C@@H](OC(=O)NCc6ccc(Cl)cc6)CC[C@]5(C)[C@H]4CC[C@]3(C)[C@H]1[C@@H]2C` returned an inhibition at 10 µM in the assay on RAW264.7 of 21.4%. Also, the viability at 10 µM in the assay on PC-12 [2] was 49.8%.
On to `Cc1ccc(CNC(=O)O[C@H]2CC[C@@]3(C)[C@H](CC[C@@H]4[C@@H]3CC[C@]3(C)[C@@H]5[C@H](C[C@@H]43)O[C@]3(CC[C@H](C)CO3)[C@H]5C)C2)cc1`, for which the viability at 10 µM in the assay on PC-12 [2] was 39.3%.
Still for that read-out and setting: the same measure for `COc1ccc(CNC(=O)O[C@H]2CC[C@@]3(C)[C@H](CC[C@@H]4[C@@H]3CC[C@]3(C)[C@@H]5[C@H](C[C@@H]43)O[C@]3(CC[C@H](C)CO3)[C@H]5C)C2)cc1`: 21.5%; for `C[C@H]1CC[C@@]2(OC1)O[C@H]1C[C@H]3[C@@H]4CC[C@@H]5C[C@@H](OC(=O)NC(=N)NC#N)CC[C@]5(C)[C@H]4CC[C@]3(C)[C@H]1[C@@H]2C`: 23.5%.
`CC(C)CNC(=O)O[C@H]1CC[C@@]2(C)[C@H](CC[C@@H]3[C@@H]2CC[C@]2(C)[C@@H]4[C@H](C[C@@H]32)O[C@]2(CC[C@H](C)CO2)[C@H]4C)C1` registered an inhibition at 10 µM in the assay with RAW264.7 of 20.5%. Besides, in the assay with Mus musculus [3], the outcome was Active. Further, the viability at 10 µM in the assay with PC-12 [2] was found to be 48.2%.
Regarding `C[C@H]1CC[C@@]2(OC1)O[C@H]1C[C@H]3[C@@H]4CC[C@@H]5C[C@@H](OC(=O)NCc6cccc(Cl)c6)CC[C@]5(C)[C@H]4CC[C@]3(C)[C@H]1[C@@H]2C`, 10 µM produced 19.3% inhibition in the assay with RAW264.7. For the same compound, the viability at 10 µM with PC-12 [2] amounted to 40.3%.
`CC(=O)N[C@@H](CS)C(=O)O` [ACETYLCYSTEINE]: the viability at 1000 µM in the assay on PC-12 [4] was determined as 35.3%.
